Laboratory results: US8691286B2, “Sputum dissolving suctioning solution for endotracheal and tracheostomy tubes” (Teleflex Medical Incorporated, priority 2009, dated 2014)

Assay: Effective concentration of glycerol (Example 2; sputum dried 4 hours, 15 minutes incubation in third cycle)
Parameters: species or system Human
Conditions: glycerol and dextran sulfate combination in 0.85% NaCl
Method: Test solutions containing different concentrations of glycerol and dextran sulfate (w/v) were prepared in 0.85% normal saline. All steps were performed at 37° C. unless specified otherwise. Each well of a 48 well microtitre plate was pre-wetted with a test solution for 2 hours. Human sputum (20 μl) was then allowed to dry for 2 hours on the pre-wetted surface, followed by incubation with 100 μl of the test solution for 15 minutes to dissolve the dried sputum, and subsequent removal of the solution. The complete cycle of sputum drying, incubation with the test solution and removal, was repeated three times. In the third and final cycle, the dried sputum was incubated with the test solution overnight instead of 15 minutes. Visual observations were recorded at each cycle and pictures were taken under a microscope.
Sputum was dried for 4 hours instead of 2 hours in each cycle, and in the third cycle dried sputum was incubated with the test solution for only 15 minutes instead of an overnight incubation.
All the test solutions contained 0.85% of NaCl.

| Compound | Most effective concentration range |
| --- | --- |
| dextran sulfate | 10-20% |
| OCC(O)CO [glycerol] | 30-50% |
